Reference: patent publication US20240368163A1, “COMPOUNDS AND METHODS FOR MODULATING SPLICING” (REMIX THERAPEUTICS INC., priority 2021, published 2024)

Assays:
Type in all cases: cell-based, human
HTT [1] = experiment: Splicing RT-qPCR assay, HTT mRNA canonical junction (CJ) and alternative junction (AJ); conditions: Homo sapiens; for AC50: increase in AJ mRNA
Experimental: (§1) Compounds described herein were used to modulate RNA transcript abundance in cells. The expression of a target mRNA was measured by detecting the formation of an exon-exon junction in the canonical transcript (CJ). A compound mediated exon-inclusion event was detected by observing an increase in formation of a new junction with an alternative exon (AJ). Real-time qPCR assays were used to detect these splicing switches and interrogate the potency of various compounds towards different target genes. A high-throughput real time quantitative PCR (RT-qPCR) assay was developed to measure these two isoforms of the mRNA (CJ and AJ) for exemplary genes, such as HTT, SMN2, and MYB, together with a control housekeeping gene, GAPDH or GUSB or PPIA, used for normalization. Briefly, the A673 or K562 cell line was treated with various compounds described herein (e.g., compounds of Formula (I)). After treatment, the levels of the HTT, MYB, or SMN2 mRNA targets were determined from each sample of cell lysate by cDNA synthesis followed by qPCR.
(§2) The A673 cell line was cultured in DMEM with 10% FBS. Cells were diluted with full growth media and plated in a 96-well plate (15,000 cells in 100 ul media per well). The plate was incubated at 37° C. with 5% CO2 for 24 hours to allow cells to adhere. An 11-point 3-fold serial dilution of the compounds was made in DMSO then diluted in media in an intermediate plate. Compounds were transferred from the intermediate plate to the cell plate with the top dose at a final concentration of 10 uM in the well. Final DMSO concentration was kept at or below 0.25%. The cell plate was returned to the incubator at 37° C. with 5% CO2 for an additional 24 hours.
(§3) The K562 cell line was cultured in IMDM with 10% FBS. For K562, cells were diluted with full growth media and plated in either a 96-well plate (50,000 cells in 50 uL media per well) or a 384-well plate (8,000-40,000 cells in 45 uL media per well). An 11-point 3-fold serial dilution of the compounds were made in DMSO then diluted in media in an intermediate plate. Compound was transferred from the intermediate plate to the cell plate with the top dose at a final concentration of 10 uM in the well. Final DMSO concentration was kept at or below 0.25%. Final volume was 100 uL for 96-well plate and 50 uL for 384-well plate. The cell plate was then placed in an incubator at 37° C. with 5% CO2 for 24 hours.
(§4) The cells were then gently washed with 50 uL-100 uL cold PBS before proceeding to addition of lysis buffer. 30 uL-50 μL of room temperature lysis buffer with DNAse I (and optionally RNAsin) was added to each well. Cells were shaken/mixed thoroughly at room temperature for 5-10 minutes for lysis to take place and then 3 uL-5 μL of room temperature stop solution was added and wells were shaken/mixed again. After 2-5 minutes, the cell lysate plate was transferred to ice for RT-qPCR reaction setup. The lysates could also be frozen at −80° C. for later use.
(§5) In some cases, a direct lysis buffer was used. An appropriate volume of 3× lysis buffer (10 mM Tris, 150 mM NaCl, 1.5%-2.5% Igepal and 0.1-1 U/uL RNAsin, pH 7.4) was directly added to either K562 or A673 cells in media and mixed by pipetting 3 times. The plates were then incubated at room temperature with shaking/rocking for 20-50 minutes to allow for lysis to take place. After this time, the cell lysate plate was transferred to ice to set up for the RT-qPCR reactions. The lysates could also be frozen at −80° C. for later use.
(§6) To set up 10 uL RT-qPCR reactions, cell lysates were transferred to 384-well qPCR plates containing the master mix according to the table below. The plates were sealed, gently vortexed, and spun down before the run. The volumes were adjusted accordingly in some instances where the reaction was carried in 20 μL. The table below summarizes the components of the RT-qPCR reactions:
(§7) The RT-qPCR reaction was performed using a QuantStudio (ThermoFisher) under the following fast cycling conditions. […]

MYB [2] = experiment: Splicing RT-qPCR assay, MYB mRNA canonical junction (CJ) and alternative junction (AJ); conditions: Homo sapiens; for AC50: increase in AJ mRNA
Experimental: as §1, §2, §3, §4, §5, §6, §7

SMN2 = experiment: Splicing RT-qPCR panel, SMN2 canonical junction (CJ) mRNA; conditions: Homo sapiens, RT-qPCR panel, canonical junction mRNA; compound concentration having 50% response in CJ decrease; read-out: SMN2 IC50 (decrease in CJ mRNA levels)
Experimental: as §1, §2, §3, §4, §5, §6, §7

Target C [3] = experiment: Splicing RT-qPCR panel, Target C canonical junction (CJ) mRNA; conditions: Homo sapiens, RT-qPCR panel, canonical junction mRNA; compound concentration having 50% response in CJ decrease; read-out: Target C IC50 (decrease in CJ mRNA levels)
Experimental: as §1, §2, §3, §4, §5, §6, §7

MYB [4] = experiment: HiBiT protein abundance assay, MYB; conditions: Homo sapiens, K562, 24 h, Table 13A, modified K562 cells
Experimental: (§8) Compounds described herein were used to screen for effects on quantitative protein abundance using a HiBit assay system (Promega). Quantitative protein abundance was determined by measuring the protein levels of HiBit-tagged protein targets expressed in cell culture via luminescence using the Nano-Glo HiBiT Lytic Detection System, which uses a split complementation assay format to reconstitute NanoBiT enzyme to generate a luminescent signal. A protein abundance assay was developed such that endogenous protein targets could be modified with the HiBiT peptide tag and their abundance could be assessed after compound treatment. Briefly, K562 cell lines containing a HiBiT-modification were treated with various compounds described herein (e.g., compounds of Formulas (I), (II), or (III)). After treatment for 24 hours, the protein abundance of a specific target was determined by measuring luminescence.
(§9) Cells were maintained in IMIDM with 10% FBS. Before the assay, cells were diluted with […] growth media (IMIDM+[…] media) and were seeded in a 384-well plate at a density of 10000 cells/well (for each cell line listed in Table 12). Each compound was prepared as a 10-point 3-fold serial dilution in DMSO with the top dose at a final concentration of 10 μM in the well. Unmodified K562 cells were added at the previously specified density with DMSO to serve as an assay baseline and positive control (PC) and DMSO only with the respective modified cell lines was added to the negative control (NC) columns. Final DMSO concentration was kept at or below 0.25%. Treated cell plates were placed in an incubator at 37° C. with 5% CO2 for 24 hours. After 24 hours, 25 μL of Complete HiBit Lytic reagent was added to each well at room temperature (e.g. one plate requiring 10 mL Lytic Buffer, 100 μL LgBiT Protein, 200 μL Lytic Substrate), shaken for 5 minutes at 600 RPM, then left to sit for 10 minutes for signal to stabilize before reading on a Spark Cyto plate reader (Tecan) with a 500 ms measurement time.
(§10) To determine compound effects on protein abundance of each target in Table 12, the percent response for each respective cell line was calculated at each compound concentration as follows:
(§11) For the normalized response at each concentration, a four-parameter logistical regression was fit to the data and the response was interpolated at the 50% value to determine a concentration for protein abundance at 50% (IC50) the untreated control.

HTT [5] = experiment: HiBiT protein abundance assay, HTT; conditions: Homo sapiens, K562, 24 h, Table 13A, modified K562 cells
Experimental: as §8, §9, §10, §11

Target C [6] = experiment: HiBiT protein abundance assay, Target C; conditions: Homo sapiens, K562, 24 h, Table 13A, modified K562 cells
Experimental: • Promega Nano-Glo HiBiT Lytic Detection System (cat #N3030) • Coming 384-well TC-treated microplates (cat #3570) • Synthego Engineered Cells Knock-In Clones
as §9, §10, §11

[7] = 24 h, decrease in CJ mRNA, A673 or K562 cells, 24 hours treatment, RT-qPCR, read-out: HTT CJ IC50
[8] = 24 h, A673 or K562 cells, 24 hours treatment, RT-qPCR
[9] = RT-qPCR panel, canonical junction mRNA, compound concentration having 50% response in CJ decrease, read-out: HTT IC50 (decrease in CJ mRNA levels)
[10] = 24 h, decrease in CJ mRNA, A673 or K562 cells, 24 hours treatment, RT-qPCR, read-out: MYB CJ IC50
[11] = RT-qPCR panel, canonical junction mRNA, compound concentration having 50% response in CJ decrease, read-out: MYB IC50 (decrease in CJ mRNA levels)

SMILES | IC50 (HTT [1]; [7]) [nM] | AC50 (HTT [1]; [8]) [nM] | IC50 (HTT [1]; [9]) [nM] | IC50 (MYB [2]; [10]) [nM] | AC50 (MYB [2]; [8]) [nM] | IC50 (MYB [2]; [11]) [nM] | IC50 (SMN2) [nM] | IC50 (Target C [3]) [nM] | IC50 (MYB [4]) [nM] | IC50 (HTT [5]) [nM] | IC50 (Target C [6]) [nM]
Cc1cc(-c2ccc(-c3ccc(O[C@H]4C[C@@H]5CC(F)(F)[C@H](C4)N5)nn3)c3[nH]ncc23)ccn1 (single isomer, unassigned) [Compound 370] | > 10000 | > 10000 | > 10000 | > 10000 | > 10000 | > 10000 | 1000 to 10000 | 1000 to 10000 | 1000 to 10000 | 1000 to 10000 | > 10000
FC1(F)C[C@@H]2C[C@@H](Oc3ccc(-c4ccc(-c5cn[nH]c5)c5cn[nH]c45)nn3)C[C@H]1N2 (stereo in doubt) [Compound 373, 7-[6-({6,6-difluoro-8-azabicyclo[3.2.1]octan-3-yl}oxy)pyridazin-3-yl]-4-(1H-pyrazol-4-yl)-1H-indazole] | 100 to 1000 | 100 to 1000 | 100 to 1000 | 1000 to 10000 | 100 to 1000 | 1000 to 10000 | 100 to 1000 | 1000 to 10000 | 1000 to 10000 | 100 to 1000 | 1000 to 10000
CN(c1ccc(-c2ccc(-c3cn[nH]c3)c3cn[nH]c23)nn1)[C@@H]1C[C@H]2CC(F)(F)[C@@H](C1)N2 (stereo in doubt) [Compound 376, 6,6-difluoro-N-methyl-N-{6-[4-(1H-pyrazol-4-yl)-1H-indazol-7-yl]pyridazin-3-yl}-8-azabicyclo[3.2.1]octan-3-amine] | – | 100 to 1000 | < 100 | 100 to 1000 | 100 to 1000 | 100 to 1000 | < 100 | 100 to 1000 | 100 to 1000 | 100 to 1000 | 100 to 1000
c1n[nH]cc1-c1ccc(-c2ccc(O[C@@H]3C[C@H]4CC[C@@H](C3)N4)nn2)c2[nH]ncc12 [Compound 142] | 100 to 1000 | 100 to 1000 | 100 to 1000 | 100 to 1000 | 100 to 1000 | 100 to 1000 | < 100 | 100 to 1000 | < 100 | < 100 | < 100
CN(c1ccc(-c2ccc(-c3cn[nH]c3)c3cn[nH]c23)nn1)[C@H]1C[C@]2(C)CC[C@](C)(C1)N2 [Compound 146] | – | < 100 | < 100 | 100 to 1000 | 100 to 1000 | 100 to 1000 | < 100 | < 100 | < 100 | < 100 | < 100
